Reference: patent US20230181614A1, “ADMINISTRATION OF CITICOLINE TO IMPROVE COGNITIVE PERFORMANCE, ATTENTIONAL PERFORMANCE, AND MOTOR FUNCTION” (KYOWA HAKKO BIO CO., LTD., priority 2014, published 2023)
Values joined by “and” are separate entries in the source; they are usually repeats but may differ in a detail not shown here. Equal values may be shown once.

Columns and labels:
[1] = system: Healthy subjects, ages 13-18; experiment: California Verbal Learning Test I and II (CVLT); assay type: in vivo, human; conditions: for CVLT I & II List A Long Delay V1, Mean / CVLT I & II List A Short Delay V1, Mean / CVLT I & II List A Trial 1 V1, Mean / CVLT I & II List A Trial 5 V1, Mean / CVLT I & II List A Trials 1-5 V1, Mean / CVLT I & II List B V1, Mean: Visit 1; for V3-V1 CVLT I & II Difference List A Long Delay, Mean / V3-V1 CVLT I & II Difference List A Short Delay, Mean / V3-V1 CVLT I & II Difference List A Trial 1, Mean / V3-V1 CVLT I & II Difference List A Trial 5, Mean / V3-V1 CVLT I & II Difference List A Trials 1-5, Mean / V3-V1 CVLT I & II Difference List B Trial 1, Mean: Visit difference score; for CVLT I & II List A Long Delay V3, Mean / CVLT I & II List A Short Delay V3, Mean / CVLT I & II List A Trial 1 V3, Mean / CVLT I & II List A Trial 5 V3, Mean / CVLT I & II List A Trials 1-5 V3, Mean / CVLT I & II List B V3, Mean: Visit 3
Source text: Study participants were screened by telephone prior to study enrollment. Healthy subjects, ages 13-18, with no significant medical conditions and no history of co-morbid psychiatric disorder, current Axis I or II diagnosis, or previous participation in a pharmacotherapeutic trial, were selected. Use of any psychotropic medication or any previous head injury resulting in loss of consciousness for 5 or more minutes were used as exclusion criteria. While no participant met criteria for a neuropsychiatric disorder at enrollment, clinical assessments were still completed throughout the study to evaluate changes in mood state. In addition, self-reports of sleep habits, lifestyle, and exercise routines were also administered at baseline as well as at each study visit to assess changes in health habits during study participation. Following the completion of Visit 1 assessment, participants were given their 28-day supply of citicoline (250 mg or 500 mg) or placebo, which was randomly assigned. They were instructed to take one capsule a day every day for the next 28 days. Visit 2 occurred fourteen days after Visit 1. At Visit 2, the remaining study pills were counted and participant dosage calendars were checked to ensure compliance with the protocol. Additional neuropsychological measures and clinical assessments were administered during this visit. Participants returned for Visit 3 fourteen days later, on the 28th day of their study participation. The pill bottle and the dosage calendar were collected from each participant. Urine and blood were again obtained. Participants also participated in similar clinical and neuropsychological testing and clinical measures that were given during visit 1. […] Subjects are asked to remember a 16-item word list, which is presented on five trials. After each trial, the subject is asked to recall all of the words that they can remember. A second list is then presented to provide an interference condition. The subject is then asked to recall the first word list. After a temporal delay, the subject is again asked to recall the first word list. Test results provide scores for assessing verbal learning, strength of memory following interfering tasks, proactive interference, accuracy of recognition memory and storage versus retrieval of newly learned information. The CVLT was administered at all three visits.

[2] = system: Healthy subjects, ages 13-18; experiment: Conner-Wells Self-Report Scale (L) (Conners); assay type: in vivo, human; conditions: for Conners Score, Mean: V3-V1
Source text: Study participants were screened by telephone prior to study enrollment. Healthy subjects, ages 13-18, with no significant medical conditions and no history of co-morbid psychiatric disorder, current Axis I or II diagnosis, or previous participation in a pharmacotherapeutic trial, were selected. Use of any psychotropic medication or any previous head injury resulting in loss of consciousness for 5 or more minutes were used as exclusion criteria. While no participant met criteria for a neuropsychiatric disorder at enrollment, clinical assessments were still completed throughout the study to evaluate changes in mood state. In addition, self-reports of sleep habits, lifestyle, and exercise routines were also administered at baseline as well as at each study visit to assess changes in health habits during study participation. Following the completion of Visit 1 assessment, participants were given their 28-day supply of citicoline (250 mg or 500 mg) or placebo, which was randomly assigned. They were instructed to take one capsule a day every day for the next 28 days. Visit 2 occurred fourteen days after Visit 1. At Visit 2, the remaining study pills were counted and participant dosage calendars were checked to ensure compliance with the protocol. Additional neuropsychological measures and clinical assessments were administered during this visit. Participants returned for Visit 3 fourteen days later, on the 28th day of their study participation. The pill bottle and the dosage calendar were collected from each participant. Urine and blood were again obtained. Participants also participated in similar clinical and neuropsychological testing and clinical measures that were given during visit 1. The Conners is a self-report questionnaire assessing a range or problem behaviors in children, including family problems, emotional problems, conduct problems, cognitive problems/inattention, anger control problems, hyperactivity, ADHD Index, and DSM-IV symptom subscales. The scale was administered at the first and third visits to assess presence or absence of a range of problem behaviors.

C[N+](C)(C)CCOP(=O)(O)OP(=O)([O-])OC[C@H]1O[C@@H](n2ccc(N)nc2=O)[C@H](O)[C@@H]1O [citicoline, Cytidine 5′-diphosphocholine]
CVLT I & II List A Long Delay V1, Mean ([1]; 250 mg/day group): 10.26 | CVLT I & II List A Short Delay V1, Mean ([1]; 250 mg/day group): 10.56 | CVLT I & II List A Trial 1 V1, Mean ([1]; 250 mg/day group): 6.11 | CVLT I & II List A Trial 5 V1, Mean ([1]; 250 mg/day group): 12.33 | CVLT I & II List A Trials 1-5 V1, Mean ([1]; 250 mg/day group): 50.52 | CVLT I & II List B V1, Mean ([1]; 250 mg/day group): 5.78 | V3-V1 CVLT I & II Difference List A Long Delay, Mean ([1]; 250 mg/day group): 0.81 | V3-V1 CVLT I & II Difference List A Short Delay, Mean ([1]; 250 mg/day group): 1.04 | V3-V1 CVLT I & II Difference List A Trial 1, Mean ([1]; 250 mg/day group): 1.63 | V3-V1 CVLT I & II Difference List A Trial 5, Mean ([1]; 250 mg/day group): 0.52 | V3-V1 CVLT I & II Difference List A Trials 1-5, Mean ([1]; 250 mg/day group): 3.11 | V3-V1 CVLT I & II Difference List B Trial 1, Mean ([1]; 250 mg/day group): 0.48 | CVLT I & II List A Long Delay V3, Mean ([1]; 250 mg/day group): 11.07 | CVLT I & II List A Short Delay V3, Mean ([1]; 250 mg/day group): 11.59 | CVLT I & II List A Trial 1 V3, Mean ([1]; 250 mg/day group): 7.74 | CVLT I & II List A Trial 5 V3, Mean ([1]; 250 mg/day group): 12.85 | CVLT I & II List A Trials 1-5 V3, Mean ([1]; 250 mg/day group): 53.63 | CVLT I & II List B V3, Mean ([1]; 250 mg/day group): 6.26 | CVLT I & II List A Long Delay V1, Mean ([1]; 500 mg/day group): 9.79 | CVLT I & II List A Short Delay V1, Mean ([1]; 500 mg/day group): 10.25 | CVLT I & II List A Trial 1 V1, Mean ([1]; 500 mg/day group): 6.58 | CVLT I & II List A Trial 5 V1, Mean ([1]; 500 mg/day group): 11.83 | CVLT I & II List A Trials 1-5 V1, Mean ([1]; 500 mg/day group): 49.04 | CVLT I & II List B V1, Mean ([1]; 500 mg/day group): 6.67 | V3-V1 CVLT I & II Difference List A Long Delay, Mean ([1]; 500 mg/day group): 1.13 | V3-V1 CVLT I & II Difference List A Short Delay, Mean ([1]; 500 mg/day group): 0.96 | V3-V1 CVLT I & II Difference List A Trial 1, Mean ([1]; 500 mg/day group): 1.00 | V3-V1 CVLT I & II Difference List A Trial 5, Mean ([1]; 500 mg/day group): 0.88 | V3-V1 CVLT I & II Difference List A Trials 1-5, Mean ([1]; 500 mg/day group): 3.75 | V3-V1 CVLT I & II Difference List B Trial 1, Mean ([1]; 500 mg/day group): -0.33 | CVLT I & II List A Long Delay V3, Mean ([1]; 500 mg/day group): 10.92 | CVLT I & II List A Short Delay V3, Mean ([1]; 500 mg/day group): 11.21 | CVLT I & II List A Trial 1 V3, Mean ([1]; 500 mg/day group): 7.58 | CVLT I & II List A Trial 5 V3, Mean ([1]; 500 mg/day group): 12.71 | CVLT I & II List A Trials 1-5 V3, Mean ([1]; 500 mg/day group): 52.79 | CVLT I & II List B V3, Mean ([1]; 500 mg/day group): 6.33 | Conners, Mean ([2]; 250 mg/day, V1 (baseline)): 49.26 | Conners, Mean ([2]; 250 mg/day, V3 (day 28)): 49.52 and 46.52 | Conners Score, Mean ([2]; 250 mg/day): -2.74 | Conners, Mean ([2]; 500 mg/day, V1 (baseline)): 43.83 | Conners, Mean ([2]; 500 mg/day, V3 (day 28)): 39.54 | Conners Score, Mean ([2]; 500 mg/day): -4.29
